Some test systems named below: RPMI-8226; HL-60; TK-10; HT-29; U-251; HCT-116; HOP-62; UACC-62; SNB-75; UO-31; SW-620; SK-MEL-2; K562; A498; SR; IGROV-1; NCI-H522; PC-3; MDA-MB-231.
Holding throughout (experiment): NCI tumour cell line growth inhibition, 48 h

Consider 13 compounds from ChEMBL document CHEMBL1201862, “PubChem BioAssay data set” (2004).

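Cells were grown in 96-well plates and exposed to each compound for 48 hours at five concentrations; endpoints were interpolated linearly between bracketing concentrations, or set to the highest concentration if not reached. GI50: concentration for 50% inhibition of growth.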 Active and inactive are the calls of the source. No stated cut-off is given here; in the data, active = GI50 up to about 1.1 µM and inactive = higher. A value given as a limit tells only on which side of the number the result lay.

Turning to `CC(OC1CC(=O)CC2C(=O)C=CC(=O)C12)c1ccccc1` (centres undefined), the GI50 was 17.3 µM (inactive) with RPMI-8226; 3.25 µM (inactive) in the test with HL-60; 17.8 µM (inactive) with TK-10; 17.7 µM (inactive) with HT-29; 14.5 µM (inactive) with U-251; 9.75 µM (inactive) in the test on HCT-116. Besides, the GI50 with HOP-62 is 24 µM (inactive); with UACC-62, 16.2 µM (inactive); with SNB-75 it was 25.6 µM (inactive); with UO-31, 16 µM (inactive); with SW-620, 13.8 µM (inactive); in the test on SK-MEL-2 it was 19.7 µM (inactive). The GI50 is 3.31 µM (inactive) with K562; 18.1 µM (inactive) in the test with A498; 19.1 µM (inactive) in the test on SR; 17.4 µM (inactive) with IGROV-1; 1.53 µM (inactive) in the test with NCI-H522.
On to `Sc1nnc(COc2ccc(Cl)cc2Cl)[nH]1`, for which the GI50 was > 100 µM (inactive) in the test with RPMI-8226; 26.4 µM (inactive) in the test with HL-60; > 100 µM (inactive) with TK-10; > 100 µM (inactive) with HT-29; > 100 µM (inactive) in the test on U-251; > 100 µM (inactive) with HCT-116. For the same compound, the GI50 in the test with UACC-62, in the test on SNB-75, in the test on UO-31, with SW-620, in the test on SK-MEL-2 and in the test on K562 was > 100 µM (inactive) in each case. Also, the GI50 in the test on A498, with SR and in the test on IGROV-1 was > 100 µM (inactive) in each case.
With `Nc1c(Cl)ncnc1NCCCNc1ncnc(Cl)c1N`, the GI50 in the test on RPMI-8226, in the test on HL-60, in the test on TK-10, with HT-29, in the test on U-251 and in the test on HCT-116 was > 100 µM (inactive) throughout. Besides, the GI50 in the test with HOP-62 was > 100 µM (inactive); in the test with UACC-62, > 100 µM (inactive); with UO-31, 95.3 µM (inactive); in the test on SW-620, > 100 µM (inactive); in the test with SK-MEL-2, > 100 µM (inactive); in the test with K562, > 100 µM (inactive). Besides, the GI50 in the test on A498 was > 100 µM (inactive); with SR, > 100 µM (inactive); in the test with IGROV-1, > 100 µM (inactive); with NCI-H522, 69.3 µM (inactive).
Take `COC(=O)C1[C@H](c2ccc3c(c2)OCO3)OC(=O)[C@]1(C(=O)OC)C(=O)c1ccc(OC)c(OC)c1` (some centres undefined): the GI50 was 46.2 µM (inactive) in the test on RPMI-8226; 25.2 µM (inactive) in the test on HL-60; > 100 µM (inactive) in the test on TK-10; 28.1 µM (inactive) with HT-29; 44.9 µM (inactive) in the test with U-251; > 100 µM (inactive) in the test with HOP-62. Moreover, the GI50 was 59.7 µM (inactive) in the test with UACC-62; 90.4 µM (inactive) in the test on SNB-75; 87.3 µM (inactive) with UO-31; 39.3 µM (inactive) in the test on SW-620; 23.4 µM (inactive) in the test with SK-MEL-2; 36 µM (inactive) with K562. Besides, the GI50 in the test on A498 was > 100 µM (inactive); in the test with SR, 34.2 µM (inactive); in the test on IGROV-1 it was 42.3 µM (inactive).
Turning to `O=C(CCN1CCN(c2cccc(Cl)c2)CC1)N1CCc2c([nH]c3ccccc23)C1c1cccnc1` (centres undefined), the GI50 with RPMI-8226 is 4.72 µM (inactive); in the test with HL-60 it was 2.54 µM (inactive); with TK-10, 4.01 µM (inactive); with HT-29 it was 3.56 µM (inactive); in the test with U-251 it was 7.08 µM (inactive); with HCT-116 it was 7.13 µM (inactive). Besides, the GI50 is 9.1 µM (inactive) with HOP-62; > 10 µM (inactive) with UACC-62; 9.68 µM (inactive) in the test with SNB-75; 2.98 µM (inactive) in the test on UO-31; > 10 µM (inactive) in the test on SW-620; 6.12 µM (inactive) in the test on SK-MEL-2. In addition, the GI50 is 2.78 µM (inactive) with K562; 0.282 µM (active) with A498; 1.75 µM (inactive) in the test with SR; 7.87 µM (inactive) in the test on IGROV-1; 4.19 µM (inactive) in the test on NCI-H522.
As to `CCCCCCCCCCCCn1c(=O)cc(NCCCC)c2cc3c(NCCCC)cc(=O)n(CCCCCCCCCCCC)c3nc21`, the GI50 in the test with RPMI-8226 is > 100 µM (inactive); in the test with TK-10 it was > 100 µM (inactive); in the test with U-251, > 100 µM (inactive); in the test on HCT-116, > 100 µM (inactive); with HOP-62, 53.8 µM (inactive); in the test with UACC-62, > 100 µM (inactive). Also, the GI50 in the test on SNB-75, in the test on UO-31, in the test on SK-MEL-2, in the test on K562, in the test on PC-3 and in the test with A498 was > 100 µM (inactive) each time. Moreover, the GI50 in the test with MDA-MB-231 and with NCI-H522 was > 100 µM (inactive) in each case.
For the compound `CC(=O)Nc1ccc(-c2nnc(SCC(=O)Nc3cccc([N+](=O)[O-])c3)o2)cc1`, the GI50 with RPMI-8226 is 20.7 µM (inactive); in the test with HL-60 it was 10.6 µM (inactive); in the test with TK-10 it was 23.6 µM (inactive); in the test with HT-29 it was 16.1 µM (inactive); in the test on U-251, 14.6 µM (inactive); in the test with HCT-116, 14 µM (inactive). Further, the GI50 in the test on HOP-62 is 22.9 µM (inactive); in the test on UACC-62 it was 11.5 µM (inactive); with SNB-75, 17.8 µM (inactive); in the test on UO-31, 13.2 µM (inactive); in the test with SW-620, 13.4 µM (inactive); in the test on SK-MEL-2, 18.3 µM (inactive). For the same compound, the GI50 was 10.3 µM (inactive) with K562, 2.87 µM (inactive) with SR, 4.11 µM (inactive) with IGROV-1 and 10.1 µM (inactive) with NCI-H522.
For `COc1ccc(-c2nc(-c3cnccn3)n(C3OC(CO)C(O)C3O)n2)cc1` (centres undefined), the GI50 with HL-60, in the test with TK-10, in the test with HT-29, in the test with U-251, in the test on UACC-62 and in the test on SNB-75 was > 10 µM (inactive) each time. For the same compound, the GI50 in the test on UO-31, with SW-620, in the test with SK-MEL-2, with K562, in the test on PC-3 and in the test with SR was > 10 µM (inactive) throughout. Besides, the GI50 in the test on NCI-H522 was > 10 µM (inactive).
With `O=S1(=O)OCCOS(=O)(=O)C1Br`, the GI50 in the test with RPMI-8226, with HL-60, with TK-10, in the test on HT-29, with HCT-116 and with HOP-62 was > 100 µM (inactive) throughout. Also, the GI50 is 52.2 µM (inactive) in the test on UACC-62; > 100 µM (inactive) in the test with SNB-75; 39.1 µM (inactive) in the test with UO-31; > 100 µM (inactive) in the test on SW-620; > 100 µM (inactive) in the test with SK-MEL-2; > 100 µM (inactive) with K562. Besides, the GI50 in the test on A498, in the test with SR, in the test with IGROV-1 and in the test on NCI-H522 was > 100 µM (inactive) throughout.
Regarding `Cc1ccc(S(=O)(=O)OC2CSSCC2OS(=O)(=O)c2ccc(C)cc2)cc1` (centres undefined), the GI50 is 13.2 µM (inactive) with RPMI-8226; 2.62 µM (inactive) in the test on HL-60; 15.3 µM (inactive) in the test on TK-10; 9.68 µM (inactive) in the test with HT-29; 14 µM (inactive) in the test with U-251; 13.3 µM (inactive) with HCT-116. Besides, the GI50 with HOP-62 is 20.3 µM (inactive); with UACC-62, 7.89 µM (inactive); with SNB-75, 12.8 µM (inactive); with UO-31, 15.2 µM (inactive); in the test with SW-620 it was 14.4 µM (inactive); with SK-MEL-2 it was 15.7 µM (inactive). The GI50 with K562 is 14.9 µM (inactive); with SR, 7.69 µM (inactive); in the test with IGROV-1, 16.8 µM (inactive); in the test with NCI-H522, 10.9 µM (inactive).
In the case of `CCCCCCCC(=O)OC[C@H](C[As](=O)(O)O)OC(=O)CCCCCCC`, the GI50 is 5.36 µM (inactive) with RPMI-8226; 3.97 µM (inactive) in the test with HL-60; 12.2 µM (inactive) in the test with HT-29; 4.95 µM (inactive) in the test with U-251; 5.24 µM (inactive) with HCT-116; 18.7 µM (inactive) with HOP-62. In addition, the GI50 with UACC-62 is 9.29 µM (inactive); with SNB-75, 11.1 µM (inactive); in the test with UO-31, 2.27 µM (inactive); in the test on SW-620, 7.26 µM (inactive); with K562, 12.7 µM (inactive); in the test on A498, 11.5 µM (inactive). In addition, the values for the GI50 in the test with SR, in the test with IGROV-1 and in the test with NCI-H522 were 3.05 µM (inactive), 3.57 µM (inactive) and 1.42 µM (inactive), respectively.
Consider `Cc1ccc(C(=O)c2[nH]c(NCc3ccccc3)c(C(=S)Nc3ccccc3)c2N)cc1`, for which the GI50 is 2.15 µM (inactive) in the test with RPMI-8226; 16.3 µM (inactive) in the test with HL-60; 11.2 µM (inactive) with TK-10; 3.24 µM (inactive) in the test with HT-29; 4.04 µM (inactive) with U-251; 4.35 µM (inactive) with HCT-116. Moreover, the GI50 with HOP-62 was 15.5 µM (inactive); with UACC-62, 11.8 µM (inactive); with SNB-75, 4.85 µM (inactive); in the test on UO-31 it was 5.32 µM (inactive); in the test on SW-620, 2.38 µM (inactive); in the test on SK-MEL-2, 10.8 µM (inactive). Besides, the GI50 in the test on K562 was 2.13 µM (inactive); with PC-3, 11.9 µM (inactive); with A498 it was 17 µM (inactive); in the test on MDA-MB-231, 6.55 µM (inactive); in the test with IGROV-1, 7.35 µM (inactive); in the test with NCI-H522, 2.21 µM (inactive).
On to `c1ccc2c(c1)[nH]c1c2nc2ncccn21`, for which the GI50 in the test on HL-60 was > 10 µM (inactive); in the test on TK-10 it was > 100 µM (inactive); with HT-29, > 100 µM (inactive); in the test on U-251, > 100 µM (inactive); in the test with HCT-116 it was > 100 µM (inactive); in the test with HOP-62, > 100 µM (inactive). Besides, the GI50 in the test on UACC-62, with SNB-75, in the test with UO-31, with SW-620, in the test on SK-MEL-2 and in the test with K562 was > 100 µM (inactive) in each case. Further, the GI50 in the test on A498, with SR, in the test with IGROV-1 and in the test on NCI-H522 was > 100 µM (inactive) in each case.
